Data: US20230227466A1, “SUBSTITUTED THIENOPYRIMIDINES THAT INTERACT WITH THE RAS SUPERFAMILY FOR THE TREATMENT OF CANCERS, INFLAMMATORY DISEASES, RASOPATHIES, AND FIBROTIC DISEASE” (SHY Therapeutics, LLC, priority 2020, published 2023)

Columns and labels:
[1] = system: ERK1/2 phosphorylation in Panc-1 cells; test: Western ERK1/2 cell-based phosphorylation assay; set-up: species or system human; settings: at 10 μM, values in brackets < > are activation %, not inhibition
In short: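 Western blot with anti-phospho-p44/42 (Thr202/Tyr204) measured ERK1/2 phosphorylation after 15 min EGF (1.5 ng/ml) stimulation. Beforehand, serum-starved (0.5% FBS, overnight) Panc-1 cells received compounds for 6 h at 37 °C, at 10 μM final in 0.3% DMSO or as dilution series for IC50.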

[2] = system: Akt phosphorylation in Panc-1 cells; test: Western AKT cell-based phosphorylation assay; set-up: species or system human; settings: at 10 μM, values in brackets < > are activation %, not inhibition
In short: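 Phospho-Akt (Ser473) western blot of Panc-1 lysates, with Ponceau S to confirm uniform loading. Before lysis, cells were serum-starved overnight (0.5% FBS), incubated 6 h at 37° C with 10 μM compound in 0.3% DMSO and stimulated 15 min with 1.5 ng/ml EGF.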

Kinetic solubility assay = type: physicochemical; settings: phosphate-buffered saline pH 7.4 with 2% DMSO, aqueous buffer, kinetic from dmso stock; pH 7.4 PBS + 2% DMSO, 25° C., two hours; effective range approximately 2-400 μM
Experimental: Equipment: Water purification system Millipore Milli-Q Gradient A10 (Millipore, France); Thermomixer R Block, 1.5 ml (Eppendorf, Germany; Cat #5355); Matrix Multichannel Electronic Pipette 2-125 μL, 5-250 μL, 15-1250 μL (Thermo Scientific, USA; Cat ##2011, 2012, 2004); SpectraMax Plus Microplate Reader (Molecular Devices, USA; Product #02196); Multi-Well Plate Vacuum Manifold (Pall Corporation, USA; Product #5014); and Vacuum pump (Millipore, USA; Model #XX5500000)
Analytical System: The measurements were performed using SpectraMax Plus reader in UV-Vis mode. Acquisition and analysis of the data were performed using SoftMax Pro v.5.4 (Molecular Devices) and Excel 2010 data analysis software.
Methods: Briefly, using a 20 mM stock solution of the compound in 100% DMSO dilutions were prepared to a theoretical concentration of 400 μM in duplicates in phosphate-buffered saline pH 7.4 (138 mM NaCl, 2.7 mM KCl, 10 mM K-phosphate) with 2% final DMSO. The experimental compound dilutions in PBS were further allowed to equilibrate at 25° C. on a thermostatic shaker for two hours and then filtered through HTS filter plates using a vacuum manifold. The filtrates of test compounds were diluted 2-fold with acetonitrile with 2% DMSO before measuring.
In parallel, compound dilutions in acetonitrile/PBS (1:1) were prepared to theoretical concentrations of 0 μM (blank), 10 μM, 25 μM, 50 μM, 100 μM, and 200 μM with 2% final DMSO to generate calibration curves. Ondansetron was used as reference compound to control proper assay performance. 200 μL of each sample was transferred to 96-well plate and measured in 200-550 nm range with 5 nm step.
The concentrations of compounds in PBS filtrate are calculated using a dedicated Microsoft Excel calculation script. Proper absorbance wavelengths for calculations are selected for each compound manually based on absorbance maximums (absolute absorbance unit values for the minimum and maximum concentration points within 0-3 OD range). Each of the final datasets is additionally visually evaluated by the operator and goodness of fit (R2) is calculated for each calibration curve. […] This method is not suitable for liquid (at 25° C.) substances (were not present among the tested compounds). Table 3A provides the kinetic solubility for some of the exemplified compounds.

Row | SMILES | % inh of ERK1/2 phosphorylation in PANC-1 [1] | % inh of AKT phosphorylation in PANC-1 [2] | solubility kinetic at 2 h (Kinetic solubility assay) [µM]
1 | CO[C@@H]1CC[C@@H](Nc2nc(-c3nccn3C)nc3sc(-c4ccn(C(C)C)n4)c(C)c23)C1 (racemic) [Compound 33, rac-6-(1-Isopropyl-1H-pyrazol-3-yl)-N-((1R,3R)-3-methoxycyclopentyl)-5-methyl-2-(1-methyl-1H-imidazol-2-yl)thieno[2,3-d]pyrimidin-4-amine] | D (76-100% inhibition) | 0 (0% inhibition) | 49
2 | COC1CCN(c2nc(-c3nccn3C)nc3sc(-c4ccn(C(C)C)n4)c(C)c23)C1 (racemic) [Compound 34, rac-6-(1-Isopropyl-1H-pyrazol-3-yl)-4-(3-methoxypyrrolidin-1-yl)-5-methyl-2-(1-methyl-1H-imidazol-2-yl)thieno[2,3-d]pyrimidine] | D (76-100% inhibition) | 0 (0% inhibition) | > 400
3 | COCC1CCN(c2nc(-c3nccn3C)nc3sc(-c4ccn(C(C)C)n4)c(C)c23)C1 (racemic) [Compound 38, rac-6-(1-Isopropyl-1H-pyrazol-3-yl)-4-(3-(methoxymethyl)pyrrolidin-1-yl)-5-methyl-2-(1-methyl-1H-imidazol-2-yl)thieno[2,3-d]pyrimidine] | D (76-100% inhibition) | B (26-50% inhibition) | > 400
4 | COC1CCCN(c2nc(-c3nccn3C)nc3sc(-c4ccn(C(C)C)n4)c(C)c23)C1 (racemic) [Compound 40, rac-6-(1-Isopropyl-1H-pyrazol-3-yl)-4-(3-methoxypiperidin-1-yl)-5-methyl-2-(1-methyl-1H-imidazol-2-yl)thieno[2,3-d]pyrimidine] | D (76-100% inhibition) | D (76-100% inhibition) | 82
5 | CO[C@H]1CC(Nc2nc(-c3nccn3C)nc3sc(-c4ccn(C(C)C)n4)c(C)c23)C[C@@H]1OC (racemic) [Compound 44, rac-N-((3S,4S)-3,4-Dimethoxycyclopentyl)-6-(1-isopropyl-1H-pyrazol-3-yl)-5-methyl-2-(1-methyl-1H-imidazol-2-yl)thieno[2,3-d]pyrimidin-4-amine] | D (76-100% inhibition) | <A> | 76
6 | COC[C@@H]1CC[C@@H]1CNc1nc(-c2nccn2C)nc2sc(-c3ccn(C(C)C)n3)c(C)c12 (racemic) [Compound 63, rac-6-(1-Isopropyl-1H-pyrazol-3-y)-N-(((1S,2R)-2-(methoxymethyl)cyclobutyl)methyl)-5-methyl-2-(1-methyl-1H-imidazol-2-yl)thieno[2,3-d]pyrimidin-4-amine] | D (76-100% inhibition) | C (51-75% inhibition) | 18
7 | COc1cccc(Nc2nc(-c3nccn3C)nc3sc(-c4ccn(C(C)C)n4)c(C)c23)c1 [Compound 64, 6-(1-Isopropyl-1H-pyrazol-3-yl)-N-(3-methoxyphenyl)-5-methyl-2-(1-methyl-1H-imidazol-2-yl)thieno[2,3-d]pyrimidin-4-amine] | D (76-100% inhibition) | B (26-50% inhibition) | 
8 | COc1cccc(Nc2nc(-c3nccn3C)nc3sc(-c4ccn(C(C)C)n4)c(C)c23)n1.Cl [Compound 65, 6-(1-Isopropyl-1H-pyrazol-3-yl)-N-(6-methoxypyridin-2-yl)-5-methyl-2-(1-methyl-1H-imidazol-2-yl)thieno[2,3-d]pyrimidin-4-amine hydrochloride salt] | D (76-100% inhibition) | B (26-50% inhibition) | 
9 | COc1cc(Nc2nc(-c3nccn3C)nc3sc(-c4ccn(C(C)C)n4)c(C)c23)ccn1 [Compound 67, 6-(1-Isopropyl-1H-pyrazol-3-yl)-N-(2-methoxypyridin-4-yl)-5-methyl-2-(1-methyl-1H-imidazol-2-yl)thieno[2,3-d]pyrimidin-4-amine] | 0 (0% inhibition) | <A> | 
10 | COc1ccnc(Nc2nc(-c3nccn3C)nc3sc(-c4ccn(C(C)C)n4)c(C)c23)n1 [Compound 68, 6-(1-Isopropyl-1H-pyrazol-3-yl)-N-(4-methoxypyrimidin-2-yl)-5-methyl-2-(1-methyl-1H-imidazol-2-yl)thieno[2,3-d]pyrimidin-4-amine] | C (51-75% inhibition) | <A> | 
11 | Cc1c(-c2ccn(C(C)C)n2)sc2nc(-c3ccccn3)nc(N3CCC(COC(C)C)C3)c12 (centres unmarked) [Compound 72, 4-(3-(Isopropoxymethyl)pyrrolidin-1-yl)-6-(1-isopropyl-1H-pyrazol-3-yl)-5-methyl-2-(pyridin-2-yl)thieno[2,3-d]pyrimidine] | D (76-100% inhibition) | B (26-50% inhibition) | 
12 | COCCn1cnc(-c2nc(O)c3scc(-c4ccccn4)c3n2)c1 [Compound 78, 2-(1-(2-Methoxyethyl)-1H-imidazol-4-yl)-7-(pyridin-2-yl)thieno[3,2-d]pyrimidin-4-ol] | 0 (0% inhibition) | 0 (0% inhibition) | 
13 | COCCCn1ccnc1-c1nc(O)c2scc(-c3ccccn3)c2n1 [Compound 79, 2-(1-(3-Methoxypropyl)-1H-imidazol-2-yl)-7-(pyridin-2-yl)thieno[3,2-d]pyrimidin-4-ol] | 0 (0% inhibition) | <B> | 
14 | CCOCCn1ccnc1-c1nc(O)c2scc(-c3ccccn3)c2n1 [Compound 80, 2-(1-(2-Ethoxyethyl)-1H-imidazol-2-yl)-7-(pyridin-2-yl)thieno[3,2-d]pyrimidin-4-ol] | A (1-25% inhibition) | <D> | 
15 | Oc1nc(-c2nccn2CCOCC(F)(F)F)nc2c(-c3ccccn3)csc12 [Compound 81, 7-(Pyridin-2-yl)-2-(1-(2-(2,2,2-trifluoroethoxy)ethyl)-1H-imidazol-2-yl)thieno[3,2-d]pyrimidin-4-ol] | B (26-50% inhibition) | <D> | 
16 | CC(C)OCCn1ccnc1-c1nc(O)c2scc(-c3ccccn3)c2n1 [Compound 82, 2-(1-(2-Isopropoxyethyl)-1H-imidazol-2-yl)-7-(pyridin-2-yl)thieno[3,2-d]pyrimidin-4-ol] | A (1-25% inhibition) | <D> | 
17 | Oc1nc(-c2nccn2CCOCc2ccccc2)nc2c(-c3ccccn3)csc12 [Compound 83, 2-(1-(2-(Benzyloxy)ethyl)-1H-imidazol-2-yl)-7-(pyridin-2-yl)thieno[3,2-d]pyrimidin-4-ol] | B (26-50% inhibition) | <D> | 
18 | COc1cccn2c(-c3nc(O)c4scc(-c5ccccn5)c4n3)ncc12 [Compound 84, 2-(8-Methoxyimidazo[1,5-a]pyridin-3-yl)-7-(pyridin-2-yl)thieno[3,2-d]pyrimidin-4-ol] | 0 (0% inhibition) | A (1-25% inhibition) | 
19 | CO[C@H]1C[C@@H](Nc2nc(-c3nccn3C)nc3sc(-c4ccn(C(C)C)n4)c(C)c23)C1 [Compound 96, 6-(1-isopropyl-1H-pyrazol-3-yl)-N-((1s,3s)-3-methoxycyclobutyl)-5-methyl-2-(1-methyl-1H-imidazol-2-yl)thieno[2,3-d]pyrimidin-4-amine] | B (26-50% inhibition) | 0 (0% inhibition) | 
